Laboratory results: US20240115667A1 (priority 2020, published 2024)
Like-named read-outs stand apart in the source and are kept apart here.

Experiments:
[1] = system: SARS-CoV-2; type: cell-based
[2] = system: SARS-CoV-2; type: cell-based; settings: diphenhydramine 40 μg/ml, lactoferrin 400 μg/ml; MOI 0.01; 48 h supernatant
[3] = system: SARS-CoV-2
[4] = system: SARS-CoV-2; settings: for EC50, inhibition of SARS-CoV-2 induced cytotoxicity: Vero E6, MOI 0.2, LDH release
[5] = system: SARS-CoV-2; assay: microbe, parasite or virus in culture; settings: Severe acute respiratory syndrome coronavirus 2, Vero C1008, read-out: EC50, inhibition of SARS-CoV-2 induced cytotoxicity, diphenhydramine with 400 μg/ml of lactoferrin

## CN(C)CCOC(c1ccccc1)c1ccccc1 [Diphenhydramine]
[1]
  Reduction in N-protein RNA: 32.2%
[2]
  Reduction of infectious SARS-CoV-2 particle release compared to untreated H23-hACE2 cells: −1 log
[3]
  Inhibition of SARS-CoV-2 infection in vitro: inhibited SARS-CoV-2 infection when administered alone
  Reduction of the diphenhydramine EC50 by presence of LFN: 3 times
[3]; 5 μg/mL DPH alone
  Decrease of SARS-CoV-2 induced cytotoxicity: unable to decrease SARS-CoV-2 induced cytotoxicity
[4]; co-administration of 400 μg/ml of lactoferrin
  Decrease of diphenhydramine EC50: 55.5%
[4]; diphenhydramine alone
  EC50, inhibition of SARS-CoV-2 induced cytotoxicity: 122 µg/mL
[4]; diphenhydramine with 400 μg/ml of lactoferrin
  EC50, inhibition of SARS-CoV-2 induced cytotoxicity: 54.25 µg/mL
[5]; Vero E6, MOI 0.2
  EC50: 186 µM
[5]; Vero E6, MOI 0.2, LDH release
  EC50: 54.2 µg/mL
